The text below walks through data of BindingDB's records for patent US20240043440 (Case Western Reserve University, 2024).

pIC50: −log10 of the molar value.

Usually pIC50 stands for the negative decadic logarithm of the IC50, by convention in mol/L. A higher pIC50 goes with a small IC50.

One assay has as its target T1, 15-hydroxyprostaglandin dehydrogenase [NAD(+)] (Homo sapiens, UniProt P15428).
T1 sequence (P15428 whole entry): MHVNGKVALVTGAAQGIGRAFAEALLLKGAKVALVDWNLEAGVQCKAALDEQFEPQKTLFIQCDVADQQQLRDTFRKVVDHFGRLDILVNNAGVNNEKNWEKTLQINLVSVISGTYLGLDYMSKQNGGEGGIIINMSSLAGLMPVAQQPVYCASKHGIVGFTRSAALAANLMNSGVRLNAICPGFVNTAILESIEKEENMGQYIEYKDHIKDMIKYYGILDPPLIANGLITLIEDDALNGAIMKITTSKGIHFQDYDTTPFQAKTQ
In words: In vitro Assay (5 nM).
Experimental: Each compound for inhibiting enzymatic activity of recombinant 15-PGDH (5 nM) in an in vitro assay.
For the compound `CCCC[S+]([O-])c1sc2nc(-c3nccs3)cc(-c3ncccn3)c2c1N` (stereo unspecified) [US20240043440, Example 8], the pIC50 was 8.59.
The same measure, in the same setting: the value for `CCCC[S+]([O-])c1sc2nc(-c3nccs3)cc(-c3cnccn3)c2c1N` (stereo unspecified) [US20240043440, Example 1] was 8.57.
With `CCCC[S+]([O-])c1sc2nc(-c3nccs3)cc(-c3cn(C)cn3)c2c1N` (stereo unspecified) [US20240043440, Example 28], the pIC50 was 8.85.
On to `CCCC[S+]([O-])c1sc2nc(-c3cccnc3)cc(-c3ccccc3)c2c1N` (stereo unspecified) [US20240043440, Example 19], for which the pIC50 was 8.62.
Still for that read-out and setting: the value for `CCCC[S@+]([O-])c1sc2nc(-c3nccs3)cc(-c3nccn3CC)c2c1N` [US20240043440, Example 30] was 6.66.

Another assay addresses T1, 15-hydroxyprostaglandin dehydrogenase [NAD(+)]. The experiment in a line: In vitro Assay (1 nM). The protocol: Each compound for inhibiting enzymatic activity of recombinant 15-PGDH (1 nM) in an in vitro assay.
`CCOCC[S+]([O-])c1sc2nc(-c3nccs3)cc(-c3cncn3C)c2c1N` (stereo unspecified) [US20240043440, Example 31] had a pIC50 of 8.74.
For `CCCC[S+]([O-])c1sc2nc(-c3cnc(NC)nc3)cc(-c3ccccc3)c2c1N` (stereo unspecified) [US20240043440, Example 60], the pIC50 was 8.85.
Same read-out and setting: the result for `COCC[S+]([O-])c1sc2nc(-c3cccnc3)nc(-c3ccccc3)c2c1N` (stereo unspecified) [US20240043440, Example 79] reads 8.82; that for `COCC[S+]([O-])c1sc2nc(-c3ccc(C4COC4)nc3)cc(-c3ccc(F)cc3)c2c1N` (stereo unspecified) [US20240043440, Example 91], 8.62.
Still for that read-out and setting: the result for `CCCC[S+]([O-])c1sc2nc(-c3cccnc3)cc(-c3ncsc3C)c2c1N` (stereo unspecified) [US20240043440, Example 73] reads 9.00; that for `CCCC[S+]([O-])c1sc2nc(-c3cccnc3)nc(-c3nccs3)c2c1N` (stereo unspecified) [US20240043440, Example 82], 9.00.
`CCCC[S+]([O-])c1sc2nc(-c3cnc(N)nc3)cc(-c3nccs3)c2c1N` (stereo unspecified) [US20240043440, Example 69] gave a pIC50 of 8.96.
Still for that read-out and setting: the value for `CCCC[S+]([O-])c1sc2nc(-c3cccnc3)cc(-c3ccccc3F)c2c1N` (stereo unspecified) [US20240043440, Example 55] was 9.00.
The same measure, in the same setting: the value for `CCCC[S+]([O-])c1sc2nc(-c3cccnc3)cc(-c3cnc(C)n3C)c2c1N` (stereo unspecified) [US20240043440, Example 38] was 8.85.
On the same count and under the same terms, the value for `COCCC[S+]([O-])c1sc2nc(-c3cccnc3)cc(-c3cncn3C)c2c1N` (stereo unspecified) [US20240043440, Example 50] was 8.85.
The compound `CCCC[S+]([O-])c1sc2nc(-c3ncccn3)cc(-c3ccccc3)c2c1N` (stereo unspecified) [US20240043440, Example 44] had a pIC50 of 8.77. The pIC50 values of the last two compounds are within 0.2 log units of each other.
On the same count and under the same terms, the value for `CCCC[S+]([O-])c1sc2nc(-c3cccnc3)nc(-c3ccccc3)c2c1N` (stereo unspecified) [US20240043440, Example 74] was 8.92; that for `CCCC[S+]([O-])c1sc2nc(-c3ccccn3)cc(-c3cnc(C)n3C)c2c1N` (stereo unspecified) [US20240043440, Example 40] was 8.62.
The same measure, in the same setting: the result for `CCCC[S+]([O-])c1sc2nc(-c3cncnc3)nc(-c3ccccc3)c2c1N` (stereo unspecified) [US20240043440, Example 83] reads 8.89; that for `COCCC[S+]([O-])c1sc2nc(-c3cnco3)cc(-c3ccccc3)c2c1N` (stereo unspecified) [US20240043440, Example 70], 9.06; that for `CCCC[S+]([O-])c1sc2nc(-c3ncccc3F)cc(-c3cnc(C)n3C)c2c1N` (stereo unspecified) [US20240043440, Example 45], 8.66.
Turning to `CCCC[S+]([O-])c1sc2nc(-c3cccnc3)nc(-c3nccn3C)c2c1N` (stereo unspecified) [US20240043440, Example 86], the negative-log IC50 (pIC50) is 8.96.
Compound `CCCC[S+]([O-])c1sc2nc(-c3cccnc3)cc(-c3ccncc3)c2c1N` (stereo unspecified) [US20240043440, Example 71] gave a negative-log IC50 (pIC50) of 9.01.
With `CCCC[S+]([O-])c1sc2nc(-c3cnn(C)c3)cnc2c1N` (stereo unspecified) [US20240043440, Example 75], the pIC50 was 8.55.
Still for that read-out and setting: the result for `CCCC[S+]([O-])c1sc2nc(-c3cnccc3C)cc(-c3cnc(C)n3C)c2c1N` (stereo unspecified) [US20240043440, Example 56] reads 8.66; that for `CCCC[S+]([O-])c1sc2nc(-c3cncnc3)cc(-c3cnc(C)n3C)c2c1N` (stereo unspecified) [US20240043440, Example 39], 8.92; that for `Cn1cncc1-c1cc(-c2nccs2)nc2sc([S+]([O-])C3CCCCC3)c(N)c12` (stereo unspecified) [US20240043440, Example 33], 8.80.
Still for that read-out and setting: the result for `CCOCC[S+]([O-])c1sc2nc(-c3nccs3)cc(-c3cnc(C)n3C)c2c1N` (stereo unspecified) [US20240043440, Example 34] reads 8.51; that for `COCCC[S+]([O-])c1sc2nc(-c3cccnc3)cc(-c3cn(C)cn3)c2c1N` (stereo unspecified) [US20240043440, Example 89], 8.89.
On the same count and under the same terms, the value for `COCC[S@@+]([O-])c1sc2nc(-c3cccnc3)nc(-c3ccccc3)c2c1N` [US20240043440, Example 79-A] was 9.00; that for `CCCC[S+]([O-])c1sc2nc(-c3cccnc3)cc(-c3cccnc3)c2c1N` (stereo unspecified) [US20240043440, Example 54] was 9.09; that for `CCCC[S+]([O-])c1sc2nc(-c3cccnc3)cc(-c3ccc(C#N)cc3)c2c1N` (stereo unspecified) [US20240043440, Example 59] was 9.04.
`CCCC[S+]([O-])c1sc2nc(-c3cccnc3)nc(-c3cncn3C)c2c1N` (stereo unspecified) [US20240043440, Example 84] showed a pIC50 of 8.92.
The same measure, in the same setting: the result for `CCCC[S+]([O-])c1sc2nc(-c3ccncn3)cc(-c3ccccc3)c2c1N` (stereo unspecified) [US20240043440, Example 47] reads 8.96.
On to `COCCC[S@@+]([O-])c1sc2nc(-c3cccnc3)nc(-c3ccc(F)cc3)c2c1N` [US20240043440, Example 87A], for which the pIC50 was 8.89.
`CCCC[S+]([O-])c1sc2nc(-c3cnc(N)nc3)cc(-c3cnc(C)n3C)c2c1N` (stereo unspecified) [US20240043440, Example 72] gave a pIC50 of 9.03.
The compound `CCCC[S+]([O-])c1sc2nc(-c3cccnc3)cc(-c3nccs3)c2c1N` (stereo unspecified) [US20240043440, Example 51] showed a negative-log IC50 (pIC50) of 9.00.
On the same count and under the same terms, the value for `COCCC[S+]([O-])c1sc2nc(-c3ccc(N)nc3)cc(-c3cccnc3)c2c1N` (stereo unspecified) [US20240043440, Example 90] was 8.60; that for `CCCC[S+]([O-])c1sc2nc(-c3ccccn3)nc(-c3ccccc3)c2c1N` (stereo unspecified) [US20240043440, Example 76] was 8.44.
On the same count and under the same terms, the value for `CCCC[S+]([O-])c1sc2nc(-c3cnc(N(C)C)nc3)cc(-c3ccccc3)c2c1N` (stereo unspecified) [US20240043440, Example 63] was 8.77; that for `COCC[S+]([O-])c1sc2nc(-c3cccnc3)cc(-c3cncn3C)c2c1N` (stereo unspecified) [US20240043440, Example 49] was 8.74; that for `CCCC[S+]([O-])c1sc2nc(-c3ccc(N)nc3)cc(-c3ccccc3)c2c1N` (stereo unspecified) [US20240043440, Example 62] was 8.82.
Same read-out and setting: the value for `COCCC[S+]([O-])c1sc2nc(-c3cnn(C)c3)cc(-c3ccccc3)c2c1N` (stereo unspecified) [US20240043440, Example 66] was 8.85.
For `CCCC[S+]([O-])c1sc2nc(-c3cncnc3)cc(-c3cnc(C4CC4)n3C)c2c1N` (stereo unspecified) [US20240043440, Example 53], the negative logarithm of the IC50 (pIC50) is 8.59.
On the same count and under the same terms, the value for `COCCC[S+]([O-])c1sc2nc(-c3cccnc3)nc(-c3ccccc3)c2c1N` (stereo unspecified) [US20240043440, Example 78] was 8.85.
On the same count and under the same terms, the value for `CCCC[S+]([O-])c1sc2nc(-c3cccnc3)cc(-c3cccc(C#N)c3)c2c1N` (stereo unspecified) [US20240043440, Example 57] was 8.96.
`CCCC[S@@+]([O-])c1sc2nc(-c3cccnc3)nc(-c3nccn3C)c2c1N` [US20240043440, Example 86A] had a pIC50 of 9.25.
Still for that read-out and setting: the result for `CCCC[S+]([O-])c1sc2nc(-c3nccs3)nc(-c3nccn3C)c2c1N` (stereo unspecified) [US20240043440, Example 77] reads 8.74; that for `COCC[S+]([O-])c1sc2nc(-c3nccs3)cc(-c3cncn3C)c2c1N` (stereo unspecified) [US20240043440, Example 36], 8.82; that for `CCCC[S@+]([O-])c1sc2nc(-c3cccnc3)nc(-c3nccn3C)c2c1N` [US20240043440, Example 86B], 7.39.
Same read-out and setting: the value for `COCCC[S@@+]([O-])c1sc2nc(-c3cccnc3)nc(-c3ccccc3)c2c1N` [US20240043440, Example 78-A] was 9.00.
On the same count and under the same terms, the result for `CCCC[S+]([O-])c1sc2nc(-c3cccnc3)nc(-c3cscn3)c2c1N` (stereo unspecified) [US20240043440, Example 81] reads 9.12.
Regarding `CCCC[S+]([O-])c1sc2nc(-c3ncccn3)nc(-c3ccccc3)c2c1N` (stereo unspecified) [US20240043440, Example 80], the pIC50 was 7.92.
The same measure, in the same setting: the value for `CCCC[S+]([O-])c1sc2nc(-c3cccnc3)nc(-c3cn(C)cn3)c2c1N` (stereo unspecified) [US20240043440, Example 85] was 8.89; that for `COCCC[S+]([O-])c1sc2nc(-c3nccs3)cc(-c3cncn3C)c2c1N` (stereo unspecified) [US20240043440, Example 37] was 8.74; that for `Cn1cncc1-c1cc(-c2nccs2)nc2sc([S+]([O-])C3CCCC3)c(N)c12` (stereo unspecified) [US20240043440, Example 32] was 8.80.
`CCCC[S+]([O-])c1sc2nc(-c3cccnc3)cc(-c3ccccn3)c2c1N` (stereo unspecified) [US20240043440, Example 58] gave a pIC50 of 8.92.
The same measure, in the same setting: the result for `CCCC[S+]([O-])c1sc2nc(-c3cccnc3)cc(-c3cncn3C)c2c1N` (stereo unspecified) [US20240043440, Example 43] reads 8.96; that for `CCCC[S+]([O-])c1sc2nc(-c3cnc(N)nc3)cc(-c3ccc(F)cc3)c2c1N` (stereo unspecified) [US20240043440, Example 61], 8.96.
On the same count and under the same terms, the value for `COCCC[S+]([O-])c1sc2nc(-c3cnc(N)nc3)cc(-c3ccccc3)c2c1N` (stereo unspecified) [US20240043440, Example 65] was 8.96; that for `Cc1ncc(-c2cc(-c3nccs3)nc3sc([S+]([O-])CC(C)C)c(N)c23)n1C` (stereo unspecified) [US20240043440, Example 35] was 8.44.
